# Several values for one entry are separate records, joined by “and”; a condition that tells them apart may be missing. Identical values can stand only once. Square brackets hold non-standard residues; d marks the D form. Peptide text beside a SMILES is read from it. d(hArg(Et2)) = CCN=C(NCC)NCCCC[C@@H](N)C(=O)O; hArg(Et2) = CCN=C(NCC)NCCCC[C@H](N)C(=O)O; dPhe(4-Cl) = N[C@H](Cc1ccc(Cl)cc1)C(=O)O; d2Nal = N[C@H](Cc1ccc2ccccc2c1)C(=O)O; d3Pal = N[C@H](Cc1cccnc1)C(=O)O
# What was measured:
# [1] = tested on: Luteinizing hormone (LH) blood level; assay: GnRH antagonist protocol with ganirelix acetate injections (Example 1): LH blood level before and after medication; type: in vivo, female patients
# Protocol: Five female patients were treated with a GnRH antagonist protocol requiring injections of medications. […]
# Three patients, numbered 3 to 5, were injected with 75, 150 and 225 Units of FSH, respectively, on days 4 to 12 and one third a syringe of 150 mcg/0.5 mL of ganirelix acetate on days 11 to 13. Patient no. 3 received 50 mg of clomiphene citrate on days 4 to 12, and 2.5 mg of letrozole on days 4 to 8. Patient no. 4 received 100 mg of clomiphene citrate and 2.5 mg of letrozole on days 4 to 8, and 50 mg of clomiphene citrate on days 9 to 11. Patient no. 5 received no clomiphene citrate or letrozole. Luteinizing hormone (LH) blood level was 12.0, 18.0 and 14.6 mIU/mL, respectively, on day 10 and dropped to 4.9, 16.0 and 14.1 mIU/mL, respectively, on day 12. […]
# [2] = tested on: Luteinizing hormone (LH) blood level; assay: Home controlled ovarian hyperstimulation method with vaginal elagolix (Example 2): LH blood level before and after medication; type: in vivo, female patients; settings: 50 mg elagolix tablet as vaginal suppository on days 9 and 11
# Protocol: On day 9 of the menstrual cycle, the patient is directed to orally take 50 to 150 mg, preferably 100 mg, (one, two, or three 50 mg oral tablets) of clomiphene citrate and to either insert vaginally or take orally, depending on the patient's preference, a gonadotropin-releasing hormone (GnRH) antagonist such as elagolix (marketed as ORILISSA®), instead of the expensive injections of ganirelix acetate (GANIRELEX®) or cetrorelix acetate (marketed as CETROTIDE®) used routinely in conventional practices. A dose of 25 mg (⅛^th of a pill) up to 200 mg of elagolix (1 full pill), preferably 25 mg, will be used, with the dose being the same whether inserted vaginally or taken orally. Elagolix is a GnRH antagonist that is conventionally used in the treatment of pain associated with endometriosis in women, not for the treatment of infertility. By blocking the GnRH receptor, elagolix suppresses LH release by the pituitary gland and thus prevents LH surge. Ultimately, elagolix suppresses gonadal steroid production, thereby reducing circulating levels of sex hormones such as progesterone, estradiol, and testosterone. Elagolix is generally an oral medication (oral tablet), however in the present method, elagolix is a tablet taken mainly as a vaginal suppository, but may be taken orally based on the patient's preference. […]
Structure (SMILES),"LH blood hormone level (mIU/mL) AFTER medication intake ([1]; Example 1, one line per patient (patients 1-5), after ganirelix injections, listed as Conventional Ganielex/Cetrotide Injectables)","LH blood hormone level (mIU/mL) BEFORE medication intake ([1]; Example 1, one line per patient (patients 1-5), baseline before ganirelix injections, with FSH and, except patient 5, clomiphene citrate/letrozole, listed as Conventional Ganielex/Cetrotide Injectables)","% Drop in blood LH hormone level ([1]; Example 1, one line per patient (patients 1-5), before vs after medication intake, listed as Conventional Ganielex/Cetrotide Injectables)","Luteinizing hormone (LH) blood level on day 12 ([1]; patient no. 1, half a syringe of 150 mcg/0.5 mL ganirelix acetate on days 11 and 12)","Luteinizing hormone (LH) blood level on day 10 ([1]; patient no. 1, half a syringe of 150 mcg/0.5 mL ganirelix acetate on days 11 and 12, FSH 150 Units, clomiphene citrate 50 mg, letrozole 2.5 mg)","Luteinizing hormone (LH) blood level on day 13 ([1]; patient no. 2, half a syringe of 150 mcg/0.5 mL ganirelix acetate on days 11 to 13)","Luteinizing hormone (LH) blood level on day 11 ([1]; patient no. 2, half a syringe of 150 mcg/0.5 mL ganirelix acetate on days 11 to 13, FSH 75/150 Units, clomiphene citrate 50 mg, letrozole 2.5 mg)","Luteinizing hormone (LH) blood level on day 10 ([1]; patients no. 3, 4, 5 respectively, one third a syringe of 150 mcg/0.5 mL ganirelix acetate on days 11 to 13, FSH 75, 150, 225 Units)",Luteinizing hormone (LH) blood level on day 13 [2],"Luteinizing hormone (LH) blood level on day 11 ([2]; clomiphene citrate 100 mg, letrozole 5 mg)"
"CCN=C(NCC)NCCCC[C@H](NC(=O)[C@H](CC(C)C)NC(=O)[C@@H](CCCCNC(=NCC)NCC)NC(=O)[C@H](Cc1ccc(O)cc1)NC(=O)[C@H](CO)NC(=O)[C@@H](Cc1cccnc1)NC(=O)[C@@H](Cc1ccc(Cl)cc1)NC(=O)[C@@H](Cc1ccc2ccccc2c1)NC(C)=O)C(=O)N1CCC[C@H]1C(=O)N[C@H](C)C(N)=O [Ganirelex, ganirelix acetate] (Ac-[d2Nal][dPhe(4-Cl)][d3Pal]SY[d(hArg(Et2))]L[hArg(Et2)]P[dA]-NH2)",2.0 mIU/mL and 6.3 mIU/mL and 4.9 mIU/mL and 16.0 mIU/mL and 14.1 mIU/mL,4.3 mIU/mL and 12.0 mIU/mL (2×) and 18.0 mIU/mL and 14.6 mIU/mL,3.4%,2 mIU/mL,4.3 mIU/mL,6.3 mIU/mL,12.0 mIU/mL,12.0 mIU/mL and 18.0 mIU/mL and 14.6 mIU/mL,–,–
"COc1cccc(-c2c(C)n(Cc3c(F)cccc3C(F)(F)F)c(=O)n(C[C@H](NCCCC(=O)O)c3ccccc3)c2=O)c1F [Vaginal elagolix suppository, elagolix]",–,–,–,–,–,–,–,–,1.0 mIU/mL,7.0 mIU/mL

# From patent publication US20200346048A1, “METHOD AND KIT FOR HOME CONTROLLED OVARIAN STIMULATION FOR IN VITRO FERTILIZATION” (priority 2019, published 2020)
